Results from publication PMC6753678, “Fueling Open Innovation for Malaria Transmission-Blocking Drugs: Hundreds of Molecules Targeting Early Parasite Mosquito Stages” (Frontiers in Microbiology, 2019).
Where two headings read alike, the source gives them in different places.

Experiments:
HepG2 cells [1] = test: HepG2 cytotoxicity assay; conditions: for IC50: read-out: HepG2 cytotoxicity assay IC50, dose response confirmation
How it was run: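 Here viability after a 48 h compound incubation (37°C, humidified 5% CO2) is measured by fluorescence and expressed as percent inhibition, with doxorubicin at 50 μM and DMSO as the bounding controls.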

[2] = system: P. falciparum late stage (stages IV-V) gametocytes; parameters: method as in Almela et al 2016; conditions: ref Almela et al 2016, read-out: Pf GCT ATP IC50, cited from earlier work
[3] = system: P. falciparum late stage (stages IV-V) gametocytes; test: P. falciparum late stage gametocyte ATP depletion assay (Pf GC-ATP); conditions: 1: YES; 0: NO; >10-fold selectivity over cytotoxicity
HepG2 cells [4] = conditions: cited from earlier work; for HepG2 cytoxicity (Pf GCT ATP screen) / HepG2 cytoxicity: ref Almela et al 2016; for HepG2 cytoxicity (Pf FGAA screen): ref Miguel-Blanco et al 2017
[5] = system: 3D7-strain P. falciparum asexual parasites; test: P. falciparum asexual growth inhibition assay (Pf GIA); assay type: cell-based, Plasmodium falciparum; conditions: dose response confirmation; read-out: Pf asexual growth inhibition assays IC50
How it was run: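 3D7 parasites at 0.25% parasitemia, 2% hematocrit were exposed to compounds in dose response for 72 h at 37°C under 5% CO2, 5% O2. Viability read as parasite LDH activity (nitro blue tetrazolium, A650) after freeze-thaw; inhibition scaled to chloroquine (50 μM) and DMSO controls, mean of three biological replicates.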

[6] = system: P. berghei ookinete development; conditions: for % inhibition, Replicate A / % inhibition, Replicate B: primary screen at 1 μM; for Is compound selective in assay? Pb ODA active?: 1: YES, 0: NO
[7] = system: P. falciparum female gametocytes; parameters: method as in Miguel-Blanco et al 2017; conditions: ref Miguel-Blanco et al 2017, read-out: Pf FGAA IC50, cited from earlier work
[8] = system: P. falciparum female gametocytes; test: P. falciparum female gametogenesis assay (Pf FGAA); conditions: 1: YES; 0: NO
[9] = HepG2 cytotoxicity unified across screens, >25 set to 25.00
[10] = P. falciparum late stage gametocyte ATP assay, TCAMS screen
[11] = read-out: Pb ODA IC50, this manuscript
[12] = read-out: Pb Ookinete development assay IC50, dose response confirmation
[13] = P. falciparum late stage gametocyte ATP assay
[14] = HepG2 data listed with Pf GCT ATP screen
[15] = reported with the Pf GCT ATP screen
[16] = HepG2 values of the three screens unified

SMILES | IC50 [5] | % inhibition, Replicate A [6] | % inhibition, Replicate B [6] | IC50 [6, 11] | IC50 [6, 12] | HepG2 cytoxicity (Pb ODA, this manuscript) (HepG2 cells [1]) | Unified cytotox (HepG2 cells [1]; [16]) | IC50 (HepG2 cells [1]) | Is compound selective in assay? Pb ODA active? [6] | IC50 [7] | HepG2 cytoxicity (Pf FGAA screen) (HepG2 cells [4]; HepG2) | Is compound selective in assay? Pf FGAA active? [8] | further results
CN(C)CCCn1c(N)c(-c2nc3ccccc3[nH]2)c2nc(C#N)c(C#N)nc21 [TCMDC-123729] |  |  |  |  |  |  |  |  |  |  |  |  | Unified cytotox (HepG2 cells [1]; [9]): 6.93 µM; IC50 [2, 10]: 200 nM; Is compound selective in assay? Pf GC-ATP active? [3]: 1 (1: YES)
c1ccc(CSC2=NNC(c3ccccn3)S2)cc1 (centres unmarked) [TCMDC-123769] |  |  |  |  |  |  |  |  |  |  |  |  | IC50 ([2]; TCAMS library screen): 7980 nM; HepG2 cytoxicity (Pf GCT ATP screen) (HepG2 cells [4]; HepG2 value reported with Pf GCT ATP screen): >25 µM
Clc1ccc(Nc2nc(-c3ccccn3)cs2)nc1 [TCMDC-123885] | 1600 nM | -3.14% | 71.58% | 3700 nM | 3700 nM |  |  |  |  |  |  |  | IC50 [2]: 670 nM; HepG2 cytoxicity (Pf GCT ATP screen) (HepG2 cells [4]; HepG2): 20.8 µM
O=C(Nc1ccc2c(c1)CCCN2S(=O)(=O)c1cccs1)c1cc([N+](=O)[O-])ccc1Cl [TCMDC-125153] |  |  |  |  |  |  |  |  |  |  |  |  | IC50 [2, 13]: 2660 nM; HepG2 cytoxicity (HepG2 cells [4]; [14]): >25 µM
Cc1cc(NCCCCCCNc2cc(C)nc3c(C)cccc23)c2cccc(C)c2n1.Cl [TCMDC-125702] |  |  |  |  |  |  |  |  |  |  |  |  | IC50 [2, 13]: 3320 nM; HepG2 cytoxicity (HepG2 cells [4]; [14]): >25 µM
Br.Cc1ccnc(Nc2nc(-c3ccccn3)cs2)c1 [TCMDC-125769] |  |  |  |  |  |  |  |  |  |  |  |  | IC50 [2, 13]: 43.3 nM
Cc1ccc(Nc2nc(-c3ccccn3)cs2)nc1 [TCMDC-125854] |  |  |  |  |  |  |  |  |  |  |  |  | Unified cytotox (HepG2 cells [1]; HepG2 cytotoxicity unified across the three screens): 33.07 µM; IC50 ([2]; TCAMS screen comparison): 160 nM; IC50 ([7]; TCAMS screen comparison): 27.3 nM
CCN(CC)/C(=N/C(=N)Nc1ccc(Cl)c(Cl)c1)NCCCCCCN/C(=N\C(=N)Nc1ccc(Cl)c(Cl)c1)N(CC)CC [TCMDC-131808] |  |  |  |  |  |  |  |  |  |  |  |  | IC50 [2, 13]: 3440 nM; HepG2 cytoxicity (HepG2 cells [4]; [14]): >25 µM
CCC1=C(C[C@H]2NCCc3cc(OC)c(OC)cc32)C[C@H]2c3cc(OC)c(OC)cc3CCN2C1.Cl [TCMDC-131825] | 127 nM | 90.26% | 99.18% | 370 nM | 367 nM |  |  |  |  |  |  |  | IC50 [2]: 300 nM; HepG2 cytoxicity (Pf GCT ATP screen) (HepG2 cells [4]; HepG2): >25 µM
Nc1c2ccccc2nc2ccc(-c3ccccc3)cc12 [TCMDC-132030] |  |  |  |  |  |  |  |  |  |  |  |  | Unified cytotox (HepG2 cells [1]; [9]): 3.30 µM; IC50 [2, 10]: 490 nM; Is compound selective in assay? Pf GC-ATP active? [3]: 0 (0: NO)
CCc1c(CCNCCCCCCNCCc2ccc(Br)cc2)ccc(OC)c1OC.Cl [TCMDC-132045] |  |  |  |  |  |  |  |  |  |  |  |  | Unified cytotox (HepG2 cells [1]; [9]): 3.20 µM; IC50 [2, 10]: 220 nM; Is compound selective in assay? Pf GC-ATP active? [3]: 1 (1: YES)
COc1ccc(-c2cc(-c3ccc(S(C)(=O)=O)cc3)cnc2N)cn1 [TCMDC-133351] |  |  |  |  |  |  |  |  |  |  |  |  | IC50 [2, 10]: 1180 nM
Nc1ncc(-c2ccc3nccc(-c4ccncc4)c3c2)cc1S(=O)(=O)N1CCOCC1 [TCMDC-134180] |  |  |  |  |  |  |  |  |  |  |  |  | Unified cytotox (HepG2 cells [1]; [9]): 25.00 µM; IC50 [2, 10]: 6900 nM; HepG2 cytoxicity (HepG2 cells [4]; [15]): >25 µM
COc1ccc2nc(-c3cccc(C)n3)nc(Nc3ccncc3)c2c1 [TCMDC-134670] |  |  |  |  |  |  |  |  |  |  |  |  | Unified cytotox (HepG2 cells [1]; [9]): 25.00 µM; IC50 [2, 10]: 2510 nM; HepG2 cytoxicity (HepG2 cells [4]; [15]): >25 µM
Cc1cccc(-c2nc(Nc3ccncc3)c3cc(N(C)C)ccc3n2)n1 [TCMDC-135308] |  |  |  |  |  |  |  |  |  |  |  |  | Unified cytotox (HepG2 cells [1]; [9]): 25.00 µM; IC50 [2, 10]: 2660 nM; HepG2 cytoxicity (HepG2 cells [4]; [15]): >25 µM
Nc1nc(N)c2c(ccc3c2ccn3Cc2cccc(F)c2)n1 [TCMDC-137810] | < 0.2 nM | 49.99% | 58.69% | 360 nM | 359 nM | 0.17 µM | 0.11 µM | 170 nM | 0 (0: NO) | 1420 nM | 0.06 µM | 0 (0: NO) | 
N#Cc1ccc(Cn2ccc3c4c(N)nc(N)nc4ccc32)cc1 [TCMDC-137820] | 22 nM | 57.43% | 49.47% | 1540 nM | 1540 nM | 0.0017 µM | 0.0017 µM | 1.7 nM | 0 (0: NO) | 1060 nM | <0.0017 µM | 0 (0: NO) | 
Cc1ccc(S(=O)(=O)N(CCCNCc2cccc(O)c2)c2ccccc2)cc1 [TCMDC-138022] | 124 nM | 53.17% | 87.34% | 1480 nM | 1480 nM | 34.67 µM | 39.67 µM | 34700 nM | 1 (1: YES) | 1140 nM | 44.67 µM | 1 (1: YES) | 
CC(C)(C)CNCC(C)(C)c1nc(-c2ccc(Cl)c(O)c2)c(-c2ccncc2)[nH]1.Cl [TCMDC-140549] | 817 nM | 58.06% | 49.80% | 1350 nM | 1350 nM | 12.02 µM | 11.83 µM | 12000 nM | 0 (0: NO) | 1010 nM | 11.63 µM | 1 (1: YES) | 
CC(C)(CN)c1nc(-c2ccc(Br)c(O)c2)c(-c2ccncc2)[nH]1.Cl [TCMDC-140680] | 1550 nM | 97.33% | 90.28% | 1930 nM | 1930 nM | 47.32 µM | 46.57 µM | 47300 nM | 1 (1: YES) | 840 nM | 45.82 µM | 1 (1: YES) | 
CC(C)(CNC(=O)[C@H]1CCCCN1)c1nc(-c2ccc(Cl)c(O)c2)c(-c2ccncc2)[nH]1.Cl [TCMDC-141070] | 818 nM | 24.32% | 51.52% |  | 2570 nM | 61.66 µM | 45.31 µM | 61700 nM | 1 (1: YES) | 530 nM | 28.96 µM | 1 (1: YES) | 
Cl.NCC1(c2nc(-c3ccc(Cl)c(O)c3)c(-c3ccncc3)[nH]2)CCCCC1 [TCMDC-141154] | 1480 nM | 57.75% | 53.53% | 1010 nM | 1000 nM | 46.77 µM | 29.34 µM | 46800 nM | 1 (1: YES) | 210 nM | 11.90 µM | 1 (1: YES) | 
CC(C)(CN)c1cc(-c2ccc(Cl)c(O)c2)c(-c2ccncc2)o1.Cl [TCMDC-141334] | 1620 nM | 59.21% | 49.94% | 1390 nM | 1390 nM | 20.65 µM | 15.32 µM | 20600 nM | 1 (1: YES) | 420 nM | 9.98 µM | 1 (1: YES) | 
O=C(Nc1ccc(Cl)cc1)c1cc(Cl)cc2nc(C(F)(F)F)[nH]c12 [TCMDC-141586] | 1100 nM | 65.74% | 42.68% | 4370 nM | 4360 nM | 2.04 µM | 2.43 µM | 2040 nM | 0 (0: NO) | 1700 nM | 2.82 µM | 0 (0: NO) | 
Cc1cc(F)ccc1-c1nc(NCCCNCCc2ccccc2)nc2c1ccc(=O)n2-c1c(F)cccc1F.O=C(O)C(F)(F)F [TCMDC-141804] | 21 nM | 63.85% | 85.47% | 720 nM | 725 nM | 11.48 µM | 12.04 µM | 11500 nM | 1 (1: YES) | 3610 nM | 12.59 µM | 0 (0: NO) | 
